Results taken from patent US12234211B2, “Cycloolefin substituted heteroaromatic compounds and their use” (HUTCHISON MEDIPHARMA LIMITED, priority 2017, dated 2025).
Values after ≈ are worked out from the molar mass of the structure shown. Read-outs that look alike come from different tables or passages of the source.

Legend:
IDH1-R132H = target: T1, IDH1-R132H (Homo sapiens, UniProt O75874, R132H); test: Fluorescent determination of IDH1-R132H cell activity (2-HG in U87MGR132H cells); assay type: cell-based; settings: 2-HG inhibition in U87MGR132H cells transfected with IDH1-R132H mutant plasmid
T1 construct: expressed in transfected cells; host or cells: U87MG cells (U87MGR132H)
T1 sequence (O75874 whole entry R132H): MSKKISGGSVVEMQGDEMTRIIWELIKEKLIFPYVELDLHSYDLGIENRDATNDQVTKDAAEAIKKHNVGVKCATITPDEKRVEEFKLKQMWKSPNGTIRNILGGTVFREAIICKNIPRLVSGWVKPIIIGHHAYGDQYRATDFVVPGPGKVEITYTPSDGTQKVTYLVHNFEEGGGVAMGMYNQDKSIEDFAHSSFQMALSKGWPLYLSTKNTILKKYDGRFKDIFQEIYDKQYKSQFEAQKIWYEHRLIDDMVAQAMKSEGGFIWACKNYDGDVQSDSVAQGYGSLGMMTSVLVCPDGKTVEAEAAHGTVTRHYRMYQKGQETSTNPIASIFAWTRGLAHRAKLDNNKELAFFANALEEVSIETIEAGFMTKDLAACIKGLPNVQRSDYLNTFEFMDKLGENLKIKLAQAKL

[1] = Metabolic stability test in liver microsomes (rat); assay type: in vitro ADME; settings: percentage of remaining compound after incubation for 30 minutes vs 0 minute; 1 μM compound; 0.5 mg/mL liver microsomes; 37° C.
Protocol: (§1) Male CD1 mouse liver microsomes was supplied by Research Institute for Liver Diseases (Shanghai) Co., Ltd. Male SD rat liver microsomes was supplied by BioreclamationIVT in US.
(§2) Phenacetin, glucose-6-phosphate (G-6-P), glucose-6-phosphate dehydrogenase (G-6-PD), and nicotinamide adenine dinucleotide phosphate (NADP) were supplied by Sigma-Aldrich (Missouri, USA).
(§3) 10 mM stock solution of test compound: Certain amount of test compound was weighed and dissolved in certain volume of dimethylsulfoxide (DMSO) to get the stock solution of test compound at 10 mM.
(§4) Reaction termination solution: Certain amount of phenacetin as internal standard was weighed and dissolved in acetonitrile to get the reaction termination solution at 1000 ng/mL, and stored at room temperature for use.
(§5) The stock solution of test compound was diluted to the designated concentration with organic solution (usually the mixtures of acetonitrile, methanol and water with different portions depending on the compound solution) to make the final concentration to be 1 μM and the contents of organic solvents no more than 1% (For DMSO, the controlled margin was 0.1%) in the final incubation system. 100 mM NADP, 500 mM G-6-P and 100 U/mL G-6-PDH were mixed and diluted with ultrapure water to provide the NADPH regenerating system containing 1 mM NADP, 5 mM G-6-P and 1 U/mL G-6-PD, which was pre-incubated at 37° C. water-bath for 10 min and then cooled on ice until being added into the reaction system. 20 mg/mL liver microsomes was mixed with 200 mM PBS and diluted with ultrapure water to make the concentrations of liver microsomes and PBS to be 0.5 mg/mL and 50 mM in the final incubation system, respectively. After the diluted liver microsomes was mixed with the NADPH regenerating solution, certain volumes of 100 mM EDTA and 300 mM MgCl2 (concentration of EDTA and MgCl2 in the final incubation system is 1 mM and 3 mM, respectively) were added, and the incubation system was put into 37° C. water bath. The incubation was commenced by adding the stock solution of test compound and maintained for 30 min. The incubation was terminated by adding the reaction termination solution. The 0 min sample was prepared by adding the reaction termination solution to the incubation system immediately prior to putting the system into the water bath with the addition of the stock solution of test compound. The terminated incubation mixtures were vortexed and centrifuged at 4400 rpm for 10 min, and the supernatant was collected for LC-MS/MS analysis.
(§6) The concentration of test compound was determined using LC-MS/MS method. Using the peak area ratio of the compound and the internal standard as an index, the percentage of remaining compound after incubation for 30 minutes as compared with the 0 minute sample was calculated, and the metabolic stability of the compound was evaluated.

IDH2-R140Q = target: T2, IDH2-R140Q (Homo sapiens, UniProt P48735, R140Q); test: Fluorescent determination of IDH2-R140Q cell activity (2-HG in U87MGR140Q cells); assay type: cell-based; settings: 72 hours incubation, read-out: IC50 (2-HG inhibition)
T2 construct: expressed in transfected cells
T2 sequence (P48735 40-452 R140Q): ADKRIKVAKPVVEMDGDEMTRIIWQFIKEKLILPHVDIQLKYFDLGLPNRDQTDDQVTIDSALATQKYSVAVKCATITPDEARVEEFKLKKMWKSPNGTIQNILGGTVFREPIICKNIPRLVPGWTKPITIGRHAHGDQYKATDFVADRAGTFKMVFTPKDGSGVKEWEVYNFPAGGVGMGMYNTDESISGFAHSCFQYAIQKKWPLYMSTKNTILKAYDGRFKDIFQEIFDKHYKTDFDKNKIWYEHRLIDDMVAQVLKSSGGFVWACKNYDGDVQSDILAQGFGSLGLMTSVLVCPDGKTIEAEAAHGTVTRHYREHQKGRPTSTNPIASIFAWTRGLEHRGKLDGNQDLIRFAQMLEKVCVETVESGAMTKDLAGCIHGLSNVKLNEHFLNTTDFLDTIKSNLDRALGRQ

[2] = Metabolic stability test in liver microsomes (mouse); assay type: in vitro ADME; settings: percentage of remaining compound after incubation for 30 minutes vs 0 minute; 1 μM compound; 0.5 mg/mL liver microsomes; 37° C.
Protocol: as §1, §2, §3, §4, §5, §6

[3] = Determination of solubility in sodium phosphate buffers; assay type: physicochemical; settings: for solubility at 1 h: aqueous buffer, thermodynamic from solid
Protocol: • Sample standard solution: About 3-5 mg test compound was accurately weighed and added into a 5 mL sample tube, 5 mL DMSO was added. Shaking and sonicating for 1 hour. • pH 2.1 sample solution: About 1 mg test compound was accurately weighed and added into a 1 mL sample tube, 1 mL pH 2.1 sodium phosphate buffer was added. Shaking. Adding test compound to the solution, if the solution is visually clear, till there is obvious insoluble in the solution. Sonicating for 1 hour. • pH 7.4 sample solution: About 1 mg test compound was accurately weighed and added into a 1 mL sample tube, 1 mL pH 7.4 sodium phosphate buffer was added. Shaking. Adding test compound to the solution, if the solution is visually clear, till there is obvious insoluble in the solution. Sonicating for 1 hour. 2. Determination • 1 mL sample standard solution was accurately pipetted into a HPLC tube. The peak area was determined by HPLC. • 0.5 mL pH 2.1 sample solution was filtered by syringe filter and was accurately pipetted into a HPLC tube, and 0.5 mL pH 2.1 sodium phosphate buffer was accurately added. Shaking. The peak area was determined by HPLC. • 0.5 mL pH 7.4 sample solution was filtered by syringe filter and was accurately pipetted into a HPLC tube, and 0.5 mL pH 7.4 sodium phosphate buffer was accurately added. Shaking. The peak area was determined by HPLC. • HPLC condition: • Instrument: Agilent 1200 • Column: Agilent SB-C18 5 u 4.6*150 mm • Mobile phase: • Phase A: Water (containing 0.1% formic acid) • Phase B: MeOH (containing 0.1% formic acid)

mutant IDH1 = settings: patients with AML or MDS having IDH1 mutations; cited from earlier work

C[C@@H](Nc1nc(N[C@H](C)C(F)(F)F)nc(C2=C(F)C(O)C(F)CC2)n1)C(F)(F)F (single isomer, unassigned) [Compound 97]
IC50 (IDH1-R132H): 47 nM | Rat liver microsome stability [1]: 98.5% | IC50 (IDH2-R140Q): 52 nM | Mouse liver microsome stability [2]: 89.5% | solubility at 1 h ([3]; pH 2.1 sodium phosphate buffer, read-out: Solubility pH 2.1): 77 µg/mL (≈ 177 µM) | solubility at 1 h ([3]; pH 7.4 sodium phosphate buffer, read-out: Solubility pH 7.4): 21 µg/mL (≈ 48.2 µM)

N#Cc1ccnc(N2C(=O)CC[C@H]2C(=O)N(c2cncc(F)c2)[C@H](C(=O)NC2CC(F)(F)C2)c2ccccc2Cl)c1 [AG-120]
patients with decreased levels of α-hydroxyglutaric acid (2HG) (mutant IDH1): 98%

[2H]C1([2H])CCC(c2nc(N[C@H](C)C(F)(F)F)nc(N[C@H](C)C(F)(F)F)n2)=C(F)C1O (stereo partly drawn) [Compound 82, (*)3-(4,6-Bis(((R)-1,1,1-trifluoropropan-2-yl)amino)-1,3,5-triazin-2-yl)-2-fluorocyclohex-2-en-6,6-D2-1-ol]
Rat liver microsome stability [1]: 92.9% | Mouse liver microsome stability [2]: 93.1% | Solubility pH 2.1 ([3]; pH 2.1 sodium phosphate buffer): 0.146 mg/mL | Solubility pH 7.4 ([3]; pH 7.4 sodium phosphate buffer): 0.037 mg/mL
